Data: patent US12421254B2, “KRAS modulators and uses thereof” (Quanta Therapeutics, Inc., priority 2023, dated 2025)
Read-outs that look alike come from different tables or passages of the source.

What was measured:
KRAS G12V/RAF1 = molecular target: T1, KRAS G12V/RAF1 (Homo sapiens, UniProt P01116, G12V); experiment: Protein-protein interaction (PPI) HTRF assay KRAS G12V/RAF1; format: binding; details: Table 3
T1 construct: KRAS (1-169) proteins were expressed in BL21 (DE3)-CodonPlus E. coli; His6-MBP (N, cleaved yes)
T1 sequence (P01116 with tags, fused parts or gaps isoform P01116-2 G12V): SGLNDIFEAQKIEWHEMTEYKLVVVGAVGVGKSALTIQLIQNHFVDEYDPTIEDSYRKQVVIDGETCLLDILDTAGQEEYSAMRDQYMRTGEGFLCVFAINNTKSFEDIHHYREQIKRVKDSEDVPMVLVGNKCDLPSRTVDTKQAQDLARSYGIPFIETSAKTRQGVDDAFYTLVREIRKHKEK
Procedure: (§1) When RAS proteins are in the active GTP-bound conformation, they bind the effector protein RAF1 at the N-terminus Ras-binding domain (RBD, residues 52-131) (Tran, et al., 2021). Homogenous time resolved fluorescence (HTRF) was used to monitor the interaction between wt or mutant KRAS and RAF1 or wt NRAS and RAF1. Compounds were assayed in the presence of KRAS G12D/V and RAF1 versus wt KRAS to assess activity against mutant and w.t. KRAS. Similarly, compounds were then assayed in the presence of w.t. NRAS and RAF1 to assess RAS isoform selectivity. In all assay formats, His-tagged RAF1 protein was incubated with the HTRF donor, anti-6His Tb Cryptate gold (Cisbio 61DB10RDF), and biotinylated RAS proteins were incubated with the HTRF acceptor, streptavidin-d2 (CisBio 610SADLA). The intensity of the fluorescence signal emitted is proportional to binding between the two proteins. The donor solution was prepared by mixing 16 nM His-tagged RAF1 in protein dilution buffer with 1:100 anti-6His Tb cryptate in PPI-Terbium detection buffer. 16 nM biotinylated RAS protein was diluted into protein dilution buffer (50 mM Tris-HCl pH 7.5, 150 mM NaCl, 0.1 mM MgCl2, 1 mM TCEP, 0.005% Tween20) and mixed with 1:2000 Streptavidin-d2 diluted in PPI-Terbium detection buffer (CisBio 61DB10RDF). 50× compound in DMSO was mixed with 16 nM KRAS-acceptor solution and incubated for 30 minutes at room temperature. After compound pre-incubation with KRAS, the RAF1 donor solution was added to the KRAS-acceptor solution and incubated for 1 hour at room temperature. The fluorescence signal emitted was monitored at 665 nm and 615 nm using an Envision multimode plate reader. The HTRF ratio (665/615) was calculated and normalized to 0% inhibition in the absence of compound and 100% inhibition in the presence of untagged RAF1 protein. PPI KRAS G12D/RAF1, KRAS G12V/RAF1, w.t. KRAS/RAF1 and NRAS/RAF1 IC50 (uM) values of selected compounds are depicted in Table 3 and Table 4 with compounds having a value <0.1 uM as ++++; ≥0.1 uM to 1 uM as +++; ≥1 uM to 10 uM as ++; ≥10 uM to 100 uM as +; and ≥100 uM as NA.

phospho-ERK in AGS cells = experiment: pERK In Cell Western (ICW) assay (Method B), AGS; format: cell-based; details: Homo sapiens, Table 2, 3 hours
Procedure: pERK ICW is a high throughput screening assay to evaluate the cellular potency of mutant KRAS small molecule inhibitors. KRAS mutant cell lines AGS, GP2D (KRAS-G12D) as well as SW620 (KRAS-G12V) were purchased from ATCC and maintained respectively in RPMI/DMEM/RPMI medium supplemented with 10% fetal bovine serum.
Cells grown in exponential phase were trypsinized, resuspended in fresh media, and viable cells were counted using a cell counter with Trypan Blue (BioRad TC20). Cells were seeded into 384-well plate (Greiner 781091) at density of 5,000 cells/well for AGS and 10,000 cells/well for GP2D/SW620 and allowed to grow overnight in a 37° C. CO2 incubator. The next day, compounds were dispensed into wells with a ½ log, 9-point serial dilution using a Tecan D300e dispenser and incubated for 3 hours in a 37° C. CO2 incubator. Cells were then fixed with paraformaldehyde (Electron Microscopy Sciences, 15710, 4% final concentration) for 30 min, permeabilized with wash buffer (1×PBS+0.1% Triton X-100) for 30 min and blocked with Odyssey blocking buffer (Li—COR 927-70001) for 1 hour, all at room temperature (RT). Phospho-ERK antibody (CST 4370L) was diluted 1:500 in Odyssey T20 (PBS) antibody diluent (Li—COR 927-75001) and incubated with cells overnight at 4° C. The next day, plates were washed 5× with wash buffer, incubated with IRDye 800 CW, Goat anti-Rabbit secondary antibody (Li—COR 926-32211, 1:800) and DRAQ5 (CST 4084L, 1:5,000) diluted in Odyssey T20 (PBS) antibody diluent for 1 hour, washed 5×, and imaged on an Odyssey CLx imaging system.
For data analysis, signal intensities from 800 (phosphor-ERK) and 700 (DRAQ5) channels were extracted, and phospho-ERK signals were normalized to DRAQ5 signals for each well and percent of blank control values were computed. Data were then imported into Graphpad Prism to compute half-maximal inhibitory concentrations (IC50) using a 4-parameter variable slope model. Z-factor for each plate was computed from signals derived from wells treated with either DMSO or 5 μM of control compound. AGS pERK ICW (Method B) IC50 (uM) values of selected compounds are depicted in Table 2 with compounds having a value ≥0.001 uM to 0.01 uM as ++++; ≥0.01 uM to 0.1 uM as +++; ≥0.1 uM to 1 uM as ++; ≥1 uM to 10 uM as + and ≥10 uM as NA.

[1] = tested on: phospho-ERK in GP2D (KRAS-G12D) cells; experiment: pERK In Cell Western (ICW) assay (Method B), GP2D; format: cell-based; details: GP2d, 3 h, Table 4
How it was run: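 Here IC50 reflects phospho-ERK suppression after 3 h compound exposure at 37 °C in cells grown in 10% FBS medium. Signal is normalized to DRAQ5 DNA stain and to blank control wells.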

[2] = molecular target: GST-tagged KRAS-G12V (2-169) (Homo sapiens, UniProt P01116, G12V); experiment: Nucleotide exchange assay (NEA), SOS-mediated, HTRF, KRAS G12V; format: biochemical; details: Table 4; IC50 extracted at 90 min; 80 nM SOS
Chain of GST-tagged KRAS-G12V (2-169) (P01116 2-169 isoform P01116-2 G12V): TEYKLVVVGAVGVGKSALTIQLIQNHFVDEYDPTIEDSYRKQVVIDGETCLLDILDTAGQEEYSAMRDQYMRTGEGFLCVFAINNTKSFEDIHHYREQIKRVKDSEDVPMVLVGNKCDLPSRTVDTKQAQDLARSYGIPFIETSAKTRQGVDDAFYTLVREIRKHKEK
How it was run: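 GST-KRAS-G12V (2-169), 0.25 nM, pre-incubated 1 h at RT with compound, then SOS1cat (564-1049) 80 nM and GTP-DY-647P1 150 nM added in HEPES pH 7.3 buffer with MgCl2 and DTT. HTRF via anti-GST Tb cryptate read over 90 min; IC50 from 4-parameter fit at 90 min, blanked to no-SOS reactions.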

[3] = molecular target: GST-tagged KRAS-G12D (2-169) (Homo sapiens, UniProt P01116, G12D); experiment: Nucleotide exchange assay (NEA), SOS-mediated, HTRF, KRAS G12D; format: biochemical; details: IC50 extracted at 30 min, 20 nM SOScat
Chain of GST-tagged KRAS-G12D (2-169) (P01116 2-169 isoform P01116-2 G12D): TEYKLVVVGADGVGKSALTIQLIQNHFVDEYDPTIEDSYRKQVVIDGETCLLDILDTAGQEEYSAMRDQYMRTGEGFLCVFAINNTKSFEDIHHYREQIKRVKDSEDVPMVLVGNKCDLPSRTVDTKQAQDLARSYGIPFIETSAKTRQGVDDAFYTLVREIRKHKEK
How it was run: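 Compound preincubated 1 h at RT with 0.25 nM GST-KRAS-G12D (2-169) and anti-GST Tb donor, then 20 nM SOS1cat (564-1049) and 150 nM GTP-DY-647P1 added; pH 7.3 HEPES buffer with MgCl2 and DTT. HTRF monitored at RT; % inhibition versus DMSO and no-SOS blank, 4-parameter IC50 taken at 30 min.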

w.t. KRAS/RAF1 = molecular target: T2, w.t. KRAS/RAF1 (Homo sapiens, UniProt P01116); experiment: Protein-protein interaction (PPI) HTRF assay w.t. KRAS/RAF1; format: binding; details: Table 3; wt KRAS/RAF1
T2 construct: KRAS (1-169) proteins were expressed in BL21 (DE3)-CodonPlus E. coli; His6-MBP (N, cleaved yes)
T2 sequence (P01116 with tags, fused parts or gaps isoform P01116-2): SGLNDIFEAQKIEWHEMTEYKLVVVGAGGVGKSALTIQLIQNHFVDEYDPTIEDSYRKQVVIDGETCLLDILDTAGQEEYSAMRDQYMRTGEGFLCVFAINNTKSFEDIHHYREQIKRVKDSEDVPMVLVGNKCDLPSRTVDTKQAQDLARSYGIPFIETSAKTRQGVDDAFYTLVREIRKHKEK
Procedure: as §1

KRAS G12D/RAF1 = molecular target: T3, KRAS G12D/RAF1 (Homo sapiens, UniProt P01116, G12D); experiment: Protein-protein interaction (PPI) HTRF assay KRAS G12D/RAF1; format: binding; details: Table 2
T3 construct: KRAS (1-169) proteins were expressed in BL21 (DE3)-CodonPlus E. coli; His6-MBP (N, cleaved yes)
T3 sequence (P01116 with tags, fused parts or gaps isoform P01116-2 G12D): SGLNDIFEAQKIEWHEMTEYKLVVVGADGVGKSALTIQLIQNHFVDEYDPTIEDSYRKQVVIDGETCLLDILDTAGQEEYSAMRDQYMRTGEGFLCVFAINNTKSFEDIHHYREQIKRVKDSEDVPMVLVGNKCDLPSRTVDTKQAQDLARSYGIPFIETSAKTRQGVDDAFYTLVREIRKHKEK
Procedure: as §1

[4] = Table 2, read-out: NEA-G12D (uM) IC50
[5] = Table 4, read-out: NEA G12D IC50

SMILES | IC50 (KRAS G12V/RAF1) [µM] | IC50 (phospho-ERK in AGS cells) [µM] | IC50 [1] [µM] | IC50 [2] [µM] | IC50 [3, 4] [µM] | IC50 [3, 5] [µM] | IC50 (w.t. KRAS/RAF1) [µM] | IC50 (KRAS G12D/RAF1) [µM]
N#Cc1c(N)sc2c1C1(CC2)CN(c2nc(OC[C@@]34CCCN3C[C@H](F)C4)nc(N3CC[C@@H](O)[C@@H](O)C3)n2)C1 (racemic) [Compound 22, 2-amino-1′-[4-[rac-(3S,4R)-3,4-dihydroxy-1-piperidyl]-6-[[(2R,8S)-2-fluoro-1,2,3,5,6,7-hexahydropyrrolizin-8-yl]methoxy]-1,3,5-triazin-2-yl]spiro[5,6-dihydrocyclopenta[b]thiophene-4,3′-azetidine]-3-carbonitrile] | 10 to 100 | 1 to 10 | 1 to 20 | 0.01 to 0.1 | 0.01 to 0.1 | 0.01 to 0.1 | 1 to 10 | 1 to 10
N#Cc1c(N)sc2c1C1(CC2)CN(c2nc(OC[C@@]34CCCN3C[C@H](F)C4)nc(N3CCCC(C#N)CC3)n2)C1 (stereo partly drawn) [Compound 8, 2-amino-1′-[4-(4-cyanoazepan-1-yl)-6-[[(2R,8S)-2-fluoro-1,2,3,5,6,7-hexahydropyrrolizin-8-yl]methoxy]-1,3,5-triazin-2-yl]spiro[5,6-dihydrocyclopenta[b]thiophene-4,3′-azetidine]-3-carbonitrile] | 1 to 10 | – | – | – | 0.01 to 0.1 | – | 1 to 10 | 1 to 10
N#Cc1c(N)sc2c1C1(CC2)CCN(c2nc(OCC3(CN4CCOCC4)CC3)nc(N3C[C@H]4CC[C@@H](C3)N4)n2)C1 (stereo partly drawn) [Compound 9, 2-amino-1′-[4-[(1R,5S)-3,8-diazabicyclo[3.2.1]octan-3-yl]-6-[[1-(morpholinomethyl)cyclopropyl]methoxy]-1,3,5-triazin-2-yl]spiro[5,6-dihydrocyclopenta[b]thiophene-4,3′-pyrrolidine]-3-carbonitrile] | 10 to 100 | 0.1 to 1 | 0.01 to 0.1 | 1 to 20 | < 0.01 | < 0.01 | – | 1 to 10
N#Cc1c(N)sc2c1C1(CC2)CCN(c2nc(OC[C@@]34CCCN3C[C@H](F)C4)nc(N3CCCC(C#N)CC3)n2)C1 (stereo partly drawn) [Compound 12, 2-amino-1′-[4-(4-cyanoazepan-1-yl)-6-[[(2R,8S)-2-fluoro-1,2,3,5,6,7-hexahydropyrrolizin-8-yl]methoxy]-1,3,5-triazin-2-yl]spiro[5,6-dihydrocyclopenta[b]thiophene-4,3′-pyrrolidine]-3-carbonitrile] | 10 to 100 | – | – | 0.1 to 1 | 0.1 to 1 | 0.1 to 1 | – | 10 to 100
CN(CC1(C#N)CC1)c1nc(OC[C@@]23CCCN2C[C@H](F)C3)nc(N2CC3(CCc4sc(N)c(C#N)c43)C2)n1 [Compound 15, 2-amino-1′-[4-[(1-cyanocyclopropyl)methyl-methyl-amino]-6-[[(2R,8S)-2-fluoro-1,2,3,5,6,7-hexahydropyrrolizin-8-yl]methoxy]-1,3,5-triazin-2-yl]spiro[5,6-dihydrocyclopenta[b]thiophene-4,3′-azetidine]-3-carbonitrile] | 1 to 10 | – | – | 0.01 to 0.1 | 0.1 to 1 | 0.1 to 1 | 1 to 10 | 1 to 10
N#Cc1c(N)sc2c1C1(CC2)CN(c2nc(OCC3(C#N)CC3)nc(OC[C@@]34CCCN3C[C@H](F)C4)n2)C1 [Compound 16, 2-amino-1′-[4-[(1-cyanocyclopropyl)methoxy]-6-[[(2R,8S)-2-fluoro-1,2,3,5,6,7-hexahydropyrrolizin-8-yl]methoxy]-1,3,5-triazin-2-yl]spiro[5,6-dihydrocyclopenta[b]thiophene-4,3′-azetidine]-3-carbonitrile] | 1 to 10 | 1 to 10 | 1 to 20 | 0.01 to 0.1 | 0.01 to 0.1 | 0.01 to 0.1 | 10 to 100 | 1 to 10
CC(C#N)COc1nc(OC[C@@]23CCCN2C[C@H](F)C3)nc(N2CC3(CCc4sc(N)c(C#N)c43)C2)n1 (stereo partly drawn) [Compound 17, 2-amino-1′-[4-(2-cyanopropoxy)-6-[[(2R,8S)-2-fluoro-1,2,3,5,6,7-hexahydropyrrolizin-8-yl]methoxy]-1,3,5-triazin-2-yl]spiro[5,6-dihydrocyclopenta[b]thiophene-4,3′-azetidine]-3-carbonitrile] | 10 to 100 | – | – | 0.01 to 0.1 | 0.1 to 1 | 0.1 to 1 | – | 10 to 100
N#Cc1c(N)sc2c1C1(CC2)CN(c2nc(OC[C@@]34CCCN3C[C@H](F)C4)nc(N3CCC[C@@H](CO)C3)n2)C1 [Compound 20, 2-amino-1′-[4-[[(2R,8S)-2-fluoro-1,2,3,5,6,7-hexahydropyrrolizin-8-yl]methoxy]-6-[(3R)-3-(hydroxymethyl)-1-piperidyl]-1,3,5-triazin-2-yl]spiro[5,6-dihydrocyclopenta[b]thiophene-4,3′-azetidine]-3-carbonitrile] | 10 to 100 | 1 to 10 | 1 to 20 | 0.01 to 0.1 | 0.01 to 0.1 | 0.01 to 0.1 | – | 10 to 100
